We go through five compounds from patent publication US20120003154A1, “ARYLOXYANILIDE DERIVATIVES” (priority 2009, published 2012).

Read-outs that look alike come from different tables or passages of the source.

The test system of one experiment is PBR. Particulars: Wilson et al Nuc. Med. Biol. 2008; cited from earlier work.
The next experiment has as its target T1, Wistar rat heart PBR (Rattus norvegicus, UniProt P16257).
T1 construct: PK-11195; from tissue; host or cells: Wistar rat heart
Briefly: In vitro potency assay (competition binding against [3H]PK-11195).

Experimental for Wistar rat heart PBR: Affinity for PBR was screened using a method adapted from Le Fur et al (Life Sci. 1983; USA 33: 449-57).
Each test compound (dissolved in 50 mM Tris-HCl, pH 7.4, 10 mM MgCl2 containing 1% DMSO) competed for binding to Wistar rat heart PBR against 0.3 nM [^3H] […] The reaction was carried out in 50 mM Tris-HCl, pH 7.4 10 mM MgCl2 for 15 minutes at 25° C.

Consider `CC(=O)N(Cc1ccccc1OCC[18F])c1cnccc1Oc1ccccc1` [[^18F]-FE-PBR28], for which, in the experiment on PBR, the “affinity for PBR in vitro” value is reported as “subnanomolar”. `COc1ncccc1CN(C(=O)CF)c1ccccc1Oc1ccccc1` [Non-radioactive imaging agent 18, 2-Flouro-N-(2-methoxy-pyridin-3-ylmethyl)-N-(2-phenoxy-phenyl)-acetamide] gave a Ki on Wistar rat heart PBR of 3.77 nM. On to `CC(=O)N(Cc1ccccc1OCCF)c1cccnc1Oc1ccccc1` [Non-radioactive imaging agent 1, N-[2(2-fluoroethoxy)benzyl]-N-(2-phenoxypyridin-3-yl)acetamide], for which the Ki on Wistar rat heart PBR (read-out: Ki) was found to be 4.24 nM. Take `CC(=O)N(Cc1ccccc1OCC[18F])c1cccnc1Oc1ccccc1` [Imaging Agent 1]: at Wistar rat heart PBR (relative to FE-PBR28), the “measured potency for PBR compared with [18F]-FE-PBR28” value is “two orders of magnitude less”. For the compound `CC(=O)N(Cc1cccnc1OCCF)c1ccccc1Oc1ccccc1` [Non-radioactive imaging agent 19, N-[2-(2-Fluoro-ethoxy)-pyridin-3-ylmethyl]-N-(2-phenoxy-phenyl)-acetamide], on Wistar rat heart PBR (read-out: Ki), the Ki is 1.02 nM.

Usually Ki stands for the equilibrium dissociation constant of an inhibitor or competing ligand from its target.
